The record followed here is US20090285773A1, “Hepatitis C Virus Inhibitors” (Bristol-Myers Squibb Company, priority 2008, published 2009).

pIC50: −log10 of the molar value. Bounds are passed on as bounds.

What all share (type): biochemical
Test [1] has as its target T1, human neutrophil elastase (HNE) (Homo sapiens, UniProt P08246).
T1 sequence (P08246 30-267): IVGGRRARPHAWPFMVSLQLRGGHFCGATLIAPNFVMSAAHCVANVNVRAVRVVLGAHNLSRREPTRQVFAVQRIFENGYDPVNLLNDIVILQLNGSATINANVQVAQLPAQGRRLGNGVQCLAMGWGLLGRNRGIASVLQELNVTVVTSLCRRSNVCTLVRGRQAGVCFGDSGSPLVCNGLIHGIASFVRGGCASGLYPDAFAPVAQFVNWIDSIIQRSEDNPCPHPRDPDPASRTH
In words: Specificity assay, human neutrophil elastase. Conditions: read-out: HLE activity in the specificity assays. The protocol:
(§1) The specificities of compounds of the present disclosure were determined against a variety of serine proteases: human neutrophil elastase (HNE), porcine pancreatic elastase (PPE) and human pancreatic chymotrypsin and one cysteine protease: human liver cathepsin B. In all cases a 96-well plate format protocol using a fluorometric Amino-Methyl-Coumarin (AMC) substrate specific for each enzyme was used as described previously (PCT Patent Application No. WO 00/09543) with some modifications to the serine protease assays. All enzymes were purchased from Sigma, EMDbiosciences while the substrates were from Bachem, Sigma and EMDbiosciences.
(§2) Compound concentrations varied from 100 to 0.4 μM depending on their potency. The enzyme assays were each initiated by addition of substrate to enzyme-inhibitor pre-incubated for 10 min at room temperature and hydrolysis to 15% conversion as measured on cytofluor. […]
(§3) The percentage of inhibition was calculated using the formula: […]

In test [2] the target is porcine pancreatic elastase (PPE) (Sus scrofa, UniProt P00772). In words: Specificity assay, porcine pancreatic elastase. The following applies: read-out: PPE activity in the specificity assays. The protocol:
as §1, §2, §3

The target of the next test is T2, NS3/4A protease complex (UniProt P27958).
T2 construct: fused on or other part: three-lysine solubilising tail at the C-terminus of NS4A; probably a His tag from pET21b (Ni-NTA purification)
The test can be described thus: HCV NS3/4A protease complex enzyme assay (strain not stated). The following applies: Table 2; strain and unit inferred. The text has this:
The purpose of this in vitro assay was to measure the inhibition of HCV NS3 protease complexes, derived from the BMS strain, H77 strain or J4L6S strain, as described above, by compounds of the present disclosure. This assay provides an indication of how effective compounds of the present disclosure would be in inhibiting HCV NS3 proteolytic activity.
In order to monitor HCV NS3/4A protease activity, an NS3/4A peptide substrate was used. The substrate was RET S1 (Resonance Energy Transfer Depsipeptide Substrate; AnaSpec, Inc. cat #22991)(FRET peptide), described by Taliani et al. in Anal. Biochem. 240(2):60-67 (1996). The sequence of this peptide is loosely based on the NS4A/NS4B natural cleavage site for the HCV NS3 protease except there is an ester linkage rather than an amide bond at the cleavage site. The peptide also contains a fluorescence donor, EDANS, near one end of the peptide and an acceptor, DABCYL, near the other end. The fluorescence of the peptide is quenched by […] resonance energy transfer (RET) between the donor and the acceptor, but as the NS3 protease cleaves the peptide the products are released from RET quenching and the fluorescence of the donor becomes apparent.
The peptide substrate was incubated with one of the three recombinant NS3/4A protease complexes, in the absence or presence of a compound of the present disclosure. The inhibitory effects of a compound were determined by monitoring the formation of fluorescent reaction product in real time using a Cytofluor Series 4000.
Assay buffer: 50 mM HEPES, pH 7.5; 0.15 M NaCl; 0.1% Triton; 15% Glycerol; 10 mM βME. Substrate: 2 μM final concentration (from a 2 mM stock solution in DMSO stored at −20° C.). HCV NS3/4A protease type 1a (1b), 2-3 nM final concentration (from a 5 μM stock solution in 25 mM HEPES, pH 7.5, 20% glycerol, 300 mM NaCl, 0.2% Triton-X100, 10 mM βME). For compounds with potencies approaching the assay limit, the assay was made more sensitive by adding 50 μg/ml Bovine Serum Albumin (Sigma) to the assay buffer and reducing the end protease concentration to 300 pM.
The assay was performed in a 96-well polystyrene black plate from Falcon. Each well contained 25 μl NS3/4A protease complex in assay buffer, 50 μl of a compound of the present disclosure in 10% DMSO/assay buffer and 25 μl substrate in assay buffer. A control (no compound) was also prepared on the same assay plate. The enzyme complex was mixed with compound or control solution for 1 min before initiating the enzymatic reaction by the addition of substrate. The assay plate was read immediately using the Cytofluor Series 4000 (Perspective Biosystems). The instrument was set to read an emission of […] at 25° C. Reactions were generally followed for approximately 15 min.
The percent inhibition was calculated with the following equation: […]
where δF is the change in fluorescence over the linear range of the curve. A non-linear curve fit was applied to the inhibition-concentration data, and the 50% effective concentration (IC50) was calculated by the use of Excel XLfit software using the equation, y=A+((B−A)/(1+((C/x)̂D))).

T2 sequence (P27958 1027-1657, one chain of several): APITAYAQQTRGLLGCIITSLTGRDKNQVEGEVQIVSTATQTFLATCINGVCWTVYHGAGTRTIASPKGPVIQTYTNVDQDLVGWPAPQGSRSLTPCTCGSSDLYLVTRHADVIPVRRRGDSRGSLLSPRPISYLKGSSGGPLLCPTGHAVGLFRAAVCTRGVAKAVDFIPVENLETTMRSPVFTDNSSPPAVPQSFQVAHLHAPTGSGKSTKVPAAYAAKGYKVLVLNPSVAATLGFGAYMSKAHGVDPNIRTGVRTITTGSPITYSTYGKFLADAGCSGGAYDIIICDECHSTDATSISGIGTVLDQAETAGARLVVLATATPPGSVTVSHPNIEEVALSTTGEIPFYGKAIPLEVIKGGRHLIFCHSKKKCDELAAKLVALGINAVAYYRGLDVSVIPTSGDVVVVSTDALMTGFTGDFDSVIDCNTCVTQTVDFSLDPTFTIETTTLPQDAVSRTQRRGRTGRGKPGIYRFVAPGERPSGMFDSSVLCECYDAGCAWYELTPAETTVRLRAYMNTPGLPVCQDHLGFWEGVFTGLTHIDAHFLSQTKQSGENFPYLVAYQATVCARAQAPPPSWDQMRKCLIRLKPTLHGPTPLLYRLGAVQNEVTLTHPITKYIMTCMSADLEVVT
porcine pancreatic elastase (PPE), sequence (P00772 27-266): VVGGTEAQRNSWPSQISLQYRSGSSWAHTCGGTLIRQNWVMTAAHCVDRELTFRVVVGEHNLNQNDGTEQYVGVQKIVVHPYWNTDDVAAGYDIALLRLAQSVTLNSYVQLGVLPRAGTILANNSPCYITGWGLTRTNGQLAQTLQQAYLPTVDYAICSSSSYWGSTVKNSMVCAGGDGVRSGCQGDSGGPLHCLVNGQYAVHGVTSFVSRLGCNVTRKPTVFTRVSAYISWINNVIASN

In the case of `COc1ccc2c(O[C@@H]3C[C@H]4C(=O)N[C@]5(C(=O)NS(=O)(=O)C6CC6)C[C@H]5/C=C\CCCCC[C@H](Nc5ccc(OC)nc5)C(=O)N4C3)nccc2c1` (single isomer, unassigned) [Compound 1], the values for the pIC50 (in test [1]; in test [2]; against NS3/4A protease complex) were 5.82, below 4.60 and 8.15, respectively.
